Results taken from PubChem BioAssay AID463074 (Broad Institute, 2010).
Activity calls are given as the source filed them.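 The calls were made as follows: active = AC50 no more than tenfold above the top dose tested, or full inhibition at every dose with a flat fit (cut at about 19 µM in these data); inconclusive = flat curve fit with inhibition between 30% and 70%, or poor fit; inactive = AC50 more than tenfold above the top dose tested.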

Test system: HMLE_sh_eGFP viability, CellTiter-Glo luminescence, 72 h
Assay: cytotoxicity in HMLE control line with eGFP shRNA, dose response, counter-screen for HMLE_sh_ECad selective toxicity project, cell-based, HMLE_sh_eGFP, luminescence (AID 463074);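 also: counterscreen control line to flag general toxicity for the HMLE_sh_ECad screen; potency for loss of viability as luminescence drops below DMSO wells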

| SMILES | AC50 |
| --- | --- |
| Cn1nc(C(F)(F)F)c(C(=O)Nc2cccc(C(F)(F)F)c2)c1SCc1ccc(Cl)cc1 | 7.09 µM |
| CCn1cc(C(=O)N[C@H](C)c2ccccc2)c(=O)c2cc(F)c(N3CCN(C)CC3)cc21 | 3.5 µM |
| O=C(Cc1ccccc1)Nc1cccc(NC(=O)c2ccccc2)c1 | 9.89 µM |
| COc1cc(/C=C/c2noc(-c3ccccc3O)n2)ccc1OC(C)=O | > 19.5 µM (inactive) |
| S=C(Nc1ccccc1)Nc1nc2ccccc2n1CCOc1ccc(Br)cc1 | 14 µM |
| NC(=O)CC(NC(=O)c1ccc(Br)cc1)c1ccc(N2CCCCCC2)c([N+](=O)[O-])c1 (stereo not drawn) | 19.6 µM |
| C=C(C)COc1ccc(-c2[nH]ncc2-c2ccc(OC)c(OC)c2)c(O)c1 | 4.5 µM |
| O=C(N/N=C/c1ccc(Cl)c([N+](=O)[O-])c1)c1cc(-c2ccccc2)nc2ccccc12 | 4.52 µM |
| O=c1[nH]c(/C(Cl)=C/c2cc(Cl)ccc2O)nc2cc(Cl)ccc12 | 2.37 µM |
| COc1cc2sc(-c3ccccc3OC)c(-c3ccc(O)cc3)c2cc1OC | 5.22 µM |
| O=C(Nc1ccccc1N1CCCCC1)c1ccc(Cl)c([N+](=O)[O-])c1 | 3.24 µM |
| COc1ccccc1/C=C1\S/C(=N/NC(=O)c2cccc(Br)c2)NC1=O | 8.09 µM |
| FC(F)(F)c1cccc(NC(=S)N(CCCN2CCCC2)Cc2cccn2Cc2ccc(Cl)cc2)c1 | 3.51 µM |
| Cc1cc(C)cc(C(=O)Nc2nnc(SCC(=O)N3CCCc4ccccc43)s2)c1 | > 19.5 µM (inactive) |
| CCOC(=O)c1c(-c2ccc(Cl)cc2)csc1NC(=O)CNCc1ccco1 | 5.2 µM |
| COc1cc(OC)cc(-c2sc3ccc(OC)cc3c2C#CC2(N)CCCCC2)c1 | 3.23 µM |
| Cc1ccc(C(=O)/C=C/c2cc(Br)cc(Br)c2O)o1 | 3.57 µM |
| Cc1cccc(-c2oc3ccccc3c2C#CCCO)c1 | 10.1 µM |
| CCN(CC)S(=O)(=O)c1ccc(N/N=C/c2cc(OC)ccc2O)nc1 | 3.85 µM |
| Cc1ccc(C(=O)CSC2=C(C#N)C(c3ccco3)C3=C(CC(C)(C)CC3=O)N2)cc1 (stereo not drawn) | 3.33 µM |
| Cc1snc(S(=O)(=O)/C(C#N)=N/Nc2ccc(C(F)(F)F)cc2)c1C#N | 19.7 µM |
| COc1cc(/C=N/O)cc(Br)c1OCc1cccc(Cl)c1 | 6.68 µM |
| Cc1ccc(C(=O)N/C(=C\c2ccc(-c3ccc(Br)cc3)o2)C(=O)NCCCN(C)C)cc1 | 4.38 µM |
| CC1(C)Cc2ccccc2C(CSc2ccccc2C(=O)O)=N1 | 17.2 µM |
| CN(C)CCOc1ccc(-c2c(-c3ccsc3)sc3ccccc23)cc1 | 3.04 µM |
| O=C(/C=C/c1ccc2c(c1)OCO2)c1c(O)n(CCC2=CCCCC2)c(=O)[nH]c1=O | 1.63 µM |

| SMILES | AC50 |
| --- | --- |
| Cc1c(NC(=O)c2ccc([N+](=O)[O-])o2)cccc1-c1nc2ncccc2o1 | 6.52 µM |
| Cc1ccn2c(NC3CCCCC3)c(-c3cccc(-c4cccc(Cl)c4)c3)nc2c1 | 6.68 µM |
| O=c1cc(N2CCCCC2)c(-c2ccccc2)nn1Cc1c(Cl)cccc1Cl | 5.72 µM |
| CCCc1cc(-c2nc(-c3ccc(C)cc3)cs2)ccn1 | 5.16 µM |
| Nc1ncnc2c1c(-c1ccc(Oc3ccccc3)cc1)cn2C1CCCC1 | 1.7 µM |
| O=C(Nc1ccc(-c2csc(Nc3ccc(Cl)cc3)n2)cc1)c1cc([N+](=O)[O-])cc(C(F)(F)F)c1 | 3.08 µM |
| O=C(Nc1cccc(Cl)c1N1CCCC1)c1cccc(-c2cc3ccccc3oc2=O)c1 | 0.869 µM |
| FC(F)Oc1ccc(-c2csc(NNC3=NCCCCC3)n2)cc1 | 3.28 µM |
| C[C@@H]1O[C@@H](O[C@@H]2C=C3CCC4C(CC[C@]5(C)[C@@H](c6ccc(=O)oc6)CC[C@]45O)[C@@]3(C)CC2)[C@H](O)[C@H](O)[C@H]1O (stereo partly drawn) | < 0.16 µM |
| O=C(O)CCN1C(=O)C(=C2CCCCCC2)SC1=S | > 19.5 µM (inactive) |
| CN(CC(O)CON=C1c2ccccc2-c2ccccc21)S(=O)(=O)c1ccc(Br)cc1 (stereo not drawn) | 4.4 µM |
| CCCCCCSc1cccc(-c2nc3ccccn3c2NCc2ccccc2)c1 | 5.27 µM |
| O=Nc1c(O)n(Cc2ccc(Cl)cc2Cl)c2ccccc12 | 7.05 µM |
| CC(C(=O)O)N1C(=O)CSc2ncccc21 (stereo not drawn) | > 19.5 µM (inactive) |
| CCOc1ccccc1CNc1ncnc2ccc(-c3c(C)noc3C)cc12 | 6.05 µM |
| Cc1nc2c(sc3nc(N4CCOCC4)c4c(c32)CC(C)(C)OC4)c(-c2ccccc2)c1C(=O)O | 1.98 µM |
| O=C(/C=C/c1ccccc1)NNc1ccc(Cl)cc1 | 12 µM |
| Cc1sc2ncnc(N3CCC(C(=O)N(C)CC(=O)Nc4ccc(Cl)c(C(F)(F)F)c4)CC3)c2c1C | 3.93 µM |
| CCN1CCN(Cc2ccc(OCc3ccccc3)cc2)CC1 | 4.38 µM |
| Cc1nc(C2CCC3C4CCC5=CC(=O)CC[C@]5(C)C4CC[C@]23C)cs1 (stereo partly drawn) | 7.15 µM |
| COc1ccc(-c2sc3cc(OC)c(OC)cc3c2-c2ccc(O)cc2)cc1 | 3.7 µM |
| CCCN(CCC)CCNC(=O)c1cc2c(-c3ccc(Cl)cc3)nn(C)c2s1 | 5.1 µM |
| COc1cc(/C=N/Nc2nc(Nc3ccccc3)nc(-n3nc(C)cc3C)n2)cc(OC)c1OC | 3.7 µM |
| C=CCOc1cccc(/C=C2\C(=O)N(Cc3ccc(C)cc3)C(C)=C2C(=O)OC)c1 | 7.24 µM |
| O=C(CCCN1C(=O)/C(=C/c2ccccc2)SC1=S)NCCCn1ccnc1 | > 19.5 µM (inactive) |
| Cc1ccc(Cl)cc1N1CCN(CC(=O)NC2CCCc3ccccc32)CC1 (stereo not drawn) | 6.66 µM |

| SMILES | AC50 |
| --- | --- |
| COc1ccc(C2c3ccc4ccccc4c3Oc3ncn(Cc4ccco4)c(=N)c32)cc1OC (stereo not drawn) | 7.58 µM |
| CC(C)CN=C(NS(=O)(=O)c1ccccc1)C(Cl)(Cl)Cl | 3.27 µM |
| Cc1ccc2nc(-c3cccc(-c4cccc(Cl)c4)c3)c(NCc3ccccc3)n2c1 | 3.17 µM |
| CN(C(=S)Nc1ccc(SC(F)F)cc1)C(c1ccccc1)c1ccccc1 | 5.58 µM |
| CCc1ccccc1Nc1nn2c(=O)c3ccc(C(=O)NCc4ccccn4)cc3nc2s1 | < 0.16 µM |
| O=S(=O)(N/N=C1/CC(c2ccccc2)Oc2ccccc21)c1ccc(Br)cc1 (stereo not drawn) | 4.21 µM |
| O=C(Nc1ccccc1)Nc1cc(Cl)cc(Cl)c1 | 5.13 µM |
| NS(=O)(=O)c1ccc(NC(=O)COC(=O)c2c3c(nc4ccccc24)/C(=C\c2ccc4c(c2)OCO4)CCC3)cc1 | 6.87 µM |
| CCCCc1ccc(/C(C)=N/Nc2cc(N3CCOCC3)nc(C)n2)cc1 | 4.99 µM |
| O=C(O)c1ccccc1C(=O)NNc1ccc(Cl)cc1 | 3.95 µM |
| CCn1c(=O)c(C(=O)NCCc2ccccc2)c(O)c2ccccc21 | 5.62 µM |
| COc1ccccc1/C=C1\SC(=S)N(CCC(=O)NCCCn2ccnc2)C1=O | 18.6 µM |
| CC/C(=N\Nc1ccccc1)c1c(O)n(-c2ccc(OC)cc2)c(=O)[nH]c1=O | 2.13 µM |
| Cc1ccc(NNC(=O)c2cccs2)cc1Cl | 2.19 µM |
| Cc1cc(-c2ccccc2)nc2cc(C(=O)N(Cc3ccccc3)Cc3ccccc3)nn12 | 10.8 µM |
| COc1cccc(/C=C/C(=C2/C(=O)N(c3ccccc3)N=C2C)c2ccc(Br)cc2)c1OC | > 19.5 µM (inactive) |
| Cc1nn(Cc2ccc(Cl)c(Cl)c2)c(C)c1NC(=O)c1cc(-c2ccc3c(c2)OCO3)on1 | 1.56 µM |
| O=C(CCSc1ccc(Cl)cc1)N1CCN(c2ccc(O)cc2)CC1 | 1.48 µM |
| C/C(=N\NC(=S)NC(C)C)c1ccc(C(C)(C)C)cc1 | 10 µM |
| O=C(NC(NC(=S)Nc1ccccc1)C(Cl)(Cl)Cl)c1cccc(Cl)c1 (stereo not drawn) | 5.36 µM |
| CN1CCc2c(sc(NC(=O)c3ccc(S(=O)(=O)N4CCc5ccccc54)cc3)c2C(N)=O)C1 | 5.01 µM |
| COc1ccc(C(=O)/C=C2/C(=O)Nc3ccccc32)c(OC)c1 | 6.75 µM |
| O=C(Nc1ccc(N2CCN(C(=O)c3cccs3)CC2)cc1)c1ccc([N+](=O)[O-])o1 | 1.87 µM |
| Cc1ccccc1CS(=O)(=O)c1ncc(Cl)c(C(=O)Nc2ccc(F)cc2)n1 | 4.11 µM |
| O=[N+]([O-])c1ccc(S(=O)(=O)Nc2ccc(-c3csc(-c4ccccc4)n3)cc2)cc1 | 4.06 µM |
| O=S(=O)(NCc1ccncc1)c1ccc(S(=O)(=O)NCC2CCCO2)cc1 (stereo not drawn) | > 19.5 µM (inactive) |

| SMILES | AC50 |
| --- | --- |
| CCCCNc1c(-c2ccc(SC3CCCCC3)c(OC)c2)nc2ccc(C)cn12 | 3.49 µM |
| COc1ccc(OC)c(NC(=O)NNC(=O)COc2ccc(-c3ccccc3)cc2)c1 | > 19.5 µM (inactive) |
| C=CCn1c(CNc2ccccc2)nnc1SCC(=O)N/N=C/c1ccc(O)cc1O | 3.23 µM |
| Cc1ccc(-n2nc(C)c3c(C)c(CCC(=O)Nc4ccc(CN5CCCC5)cc4)c(C)nc32)cc1 | 3.79 µM |
| O=C(Nc1nc2ccccc2s1)C1CCN(S(=O)(=O)c2cc([N+](=O)[O-])ccc2Cl)CC1 | 19 µM |
| O=[N+]([O-])c1cc(C(F)(F)F)ccc1NCCc1c[nH]c2ccccc12 | 4.16 µM |
| Cc1oc(CC(C)C)cc1C(=O)Nc1cccc2ccccc12 | 5.98 µM |
| CCOc1cc(S(=O)(=O)Nc2ccc(CC)cc2)ccc1Cl | 7.02 µM |
| Cc1cccc(C(=O)Nc2ccc(C(=O)Nc3ccc(O)cc3)cc2)c1 | 5.08 µM |
| COc1ccc(N=C2NN=C(c3c(C)[nH]c4ccccc34)CS2)cc1 | 7.77 µM |
| CCc1ccc(CNC(=O)C2CCN(c3nnc(C)c4c(C)n(-c5ccc(C)cc5)nc34)CC2)cc1 | 4.14 µM |
| CC1(C)Cc2ccccc2/C(=C/C(=O)c2ccccc2)N1 | 7.27 µM |
| O=C(NCC1CCCCC1)c1cc2ccccc2cc1O | 7.79 µM |
| COc1ccc(-c2nc(N)nc(C)c2Oc2ccccc2Br)c(O)c1 | 5.08 µM |
| NC(=O)CC(NC(=O)Cc1ccc(Br)cc1)c1ccc(NC2CCCCCC2)c([N+](=O)[O-])c1 (stereo not drawn) | 4.88 µM |
| CC(C)CCn1c(N)c(C(=O)NCc2cccs2)c2nc3ccccc3nc21 | 7.25 µM |
| CCCCCCCCCc1nc2sc3c(c2c(=O)n1NC(=O)c1ccccc1[N+](=O)[O-])CC(C)(C)OC3 | 1.21 µM |
| CCOC(=O)C(=Cc1ccc(-n2ccnc2)cc1)C(=O)OCC | 7.68 µM |
| C=CCn1c(SCC(=O)c2[nH]c(C)c(C(=O)OCC)c2C)nc2scc(-c3ccc(OC)c(OC)c3)c2c1=O | 3.99 µM |
| Cc1ccc(NNC(=O)C(O)(c2cccc(C(F)(F)F)c2)c2cccc(C(F)(F)F)c2)cc1 | 3.29 µM |
| O=C1CC(N(CCc2ccccc2)C(=S)Nc2cc(Cl)ccc2Cl)C(=O)N1c1c(Cl)cccc1Cl (stereo not drawn) | > 19.5 µM (inactive) |
| O=C1c2cc(Br)ccc2N(Cc2ccc(Br)cc2)S(=O)(=O)C1c1cc(Cl)c(Cl)cc1[N+](=O)[O-] (stereo not drawn) | 3.07 µM |
| CC(C)(C)c1ccc(C(=O)CC(Sc2ccc(Cl)cc2)C(=O)O)cc1 (stereo not drawn) | 9.07 µM |
| COc1ccc(-c2sc3ccccc3c2/C=C/c2ccncc2)cc1 | 6.68 µM |
| CC(C)(C)c1cc(CSC(=S)NC2CCS(=O)(=O)C2)c(Br)c(C(C)(C)C)c1 (stereo not drawn) | 3.8 µM |
